Experiments:
MtGlnK2 = target: T1, MtGlnK2 (Methanothermococcus thermolithotrophicus, UniProt Z9RMX6QOV2); experiment: X-ray crystal structure ([…] Å); assay type: binding; conditions: co-crystallised with 2 mM ATP, 2 mM 2OG, 2 mM MgCl2; pH 6.5; inter-subunit cleft
T1 construct: N-terminal His-tag (pET-28a(+)), tag kept (partially visible); codon-optimised gene in E. coli BL21(DE3); circa 12 kDa monomer, trimer; site between adjacent subunits

MjGlnK1^woT = target: T2, MjGlnK1^woT (Methanocaldococcus jannaschii, UniProt Q60381); experiment: X-ray crystal structure ([…] Å); assay type: binding; conditions: co-crystallised with 2 mM ATP, 2 mM 2OG, 2 mM MgCl2; pH 8.5; inter-subunit cleft
T2 construct: gene glnK1; untagged (stop codon before XhoI in pET-24b(+)); codon-optimised gene in E. coli BL21(DE3); circa 12 kDa monomer, trimer; 2J9D/2J9E are earlier structures of this protein (2J9E C-terminally tagged)
T2 sequence (Q60381 whole entry): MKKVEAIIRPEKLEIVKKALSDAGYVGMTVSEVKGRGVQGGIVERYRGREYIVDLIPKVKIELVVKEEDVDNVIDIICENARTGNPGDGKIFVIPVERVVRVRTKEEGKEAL

Question: Which “X-ray crystal structure (1.16 Å)” value (MtGlnK2) does the source give for `O=C(O)CCC(=O)C(=O)O` [2OG] here?
Answer: Its value is “MtGlnK2 and MjGlnK1^woT structures, co-crystallized with Mg-ATP and 2OG”.

Question: What about the “X-ray crystal structure (1.20 Å)” value (MjGlnK1^woT) of the same compound?
Answer: The value was “MtGlnK2 and MjGlnK1^woT structures, co-crystallized with Mg-ATP and 2OG”.

Question: Which “X-ray crystal structure (1.16 Å)” value (MtGlnK2) does the source give for `Nc1ncnc2c1ncn2[C@@H]1O[C@H](COP(=O)(O)OP(=O)(O)OP(=O)(O)O)[C@@H](O)[C@H]1O` [ATP] here?
Answer: Its value is “MtGlnK2 and MjGlnK1^woT structures, co-crystallized with Mg-ATP and 2OG”.

Question: And the “X-ray crystal structure (1.20 Å)” value (MjGlnK1^woT)?
Answer: The value was “MtGlnK2 and MjGlnK1^woT structures, co-crystallized with Mg-ATP and 2OG”.

From article PMC8395244, “The Oxoglutarate Binding Site and Regulatory Mechanism Are Conserved in Ammonium Transporter Inhibitors GlnKs from Methanococcales” (International Journal of Molecular Sciences, 2021)
